According to PMC3071371, “Trypanosoma brucei Glycogen Synthase Kinase-3, A Target for Anti-Trypanosomal Drug Development: A Public-Private Partnership to Identify Novel Leads” (PLoS Neglected Tropical Diseases, 2011):
“Also recorded” adds a separate entry of the source.

Columns and labels:
[1] = Cytotoxicity against MRC-5 cell line, resazurin; assay type: cell-based, human; settings: human, MRC-5 fetal lung fibroblast cells; 72 hours incubation
Method: (§1) Compounds with TbruGSK-3 short IC50<100 nM were tested for their ability to inhibit the proliferation of T. brucei (blood stage form). Cytotoxicity testing against human fetal lung fibroblast MRC-5 cell line was also performed. Both assays were carried out with compound concentrations up to 64 µM at the Laboratory for Microbiology, Parasitology and Hygiene, University of Antwerp (www.ua.ac.be). Briefly, T. brucei trypomastigotes (Squib-427 strain, suramin-sensitive) were cultured in Hirumi-9 medium supplemented with 10% fetal calf serum at 1.5×10^4 trypomastigotes per well. Following 72 hours incubation, parasite growth was assessed fluorimetrically by addition of resazurin. For cytotoxicity evaluation, 10^4 MRC-5 cells/well were seeded onto the test plates containing the pre-diluted compounds and incubated at 37°C with 5% CO2 for 72 hours. Cell viability was determined fluorimetrically after addition of resazurin [24], [25]. Single point kinase panel screening was also conducted on selected compounds at 10 µM by Invitrogen (www.Invitrogen.com) and University of Dundee, UK (www.dundee.ac.uk).

[2] = test system: human fetal lung fibroblast MRC-5 cell line; assay: Cytotoxicity against MRC-5 cell line, resazurin; assay type: cell-based; settings: ratio of EC50s
Method: as §1

[3] = test system: T. brucei trypomastigotes (Squib-427 strain); assay: T. brucei blood stage proliferation, resazurin; assay type: cell-based; settings: Trypanosoma brucei; blood stage form, 72 hours incubation; read-out: Tbru parasite EC50
Method: as §1

[4] = target: T1, HsGSK-3 beta (Homo sapiens, UniProt P49841); assay: Human GSK-3 beta inhibition (Pfizer data files or Omnia Kinase Assay); assay type: biochemical; settings: recovered from Pfizer data files or Omnia Kinase Assay, mean of at least 2 replicates
T1 construct: purchased Invitrogen
Method: Human GSK-3 beta inhibition data (IC50) for many of the compounds were recovered from Pfizer data files. If historical data were not available, the compounds were tested in an assay using 10 nM HsGSK-3 beta (Invitrogen) using Omnia Kinase Assay (Invitrogen) according to the manufacturer's instructions. The reaction volume was 20 µL and a range of compound concentrations were tested, up to a maximum of 40 µM. Briefly, 5 µl of HsGSK-3 beta was dispensed into black 384 assay plates (Greiner bio one) containing 0.2 µl of compounds. The enzyme was incubated with the compounds for 15 minutes at 30°C then 15 µl of substrate mixture was added to each well to commence the reaction. The substrate mixture consisted of 2 µL each of 2× kinase reaction buffer, 10 µM Omina peptide substrate, 0.2 mM DTT and 10 µM ATP, and 7 µL of ultra pure water. The reaction was allowed to proceed for 30 minutes at 30°C. Increase in fluorescence levels indicating peptide phosphorylation by the enzyme was monitored using an Envision (PerkinElmer) with λex 360/λem 485 nm and the data were analysed using Pfizer software SIGHTS and Spotfire (TIBCO).

[5] = target: T2, TbruGSK-3 short (Trypanosoma brucei brucei, UniProt Q388M1); assay: TbruGSK-3 short Kinase-Glo luminescent ATP depletion assay; assay type: biochemical; settings: mean of at least 2 replicates; 2 µM ATP; read-out: Tbru GSK-3 short IC50
T2 construct: made in house
T2 sequence (Q388M1 1-352): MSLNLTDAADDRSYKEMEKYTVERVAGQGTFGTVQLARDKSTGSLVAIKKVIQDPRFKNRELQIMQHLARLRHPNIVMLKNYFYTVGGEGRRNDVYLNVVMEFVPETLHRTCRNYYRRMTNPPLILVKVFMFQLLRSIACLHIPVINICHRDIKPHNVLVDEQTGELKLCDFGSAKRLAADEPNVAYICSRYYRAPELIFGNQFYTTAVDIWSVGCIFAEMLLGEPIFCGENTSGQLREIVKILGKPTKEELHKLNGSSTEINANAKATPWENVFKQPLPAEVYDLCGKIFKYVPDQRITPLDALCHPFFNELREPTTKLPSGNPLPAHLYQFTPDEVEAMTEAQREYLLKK
Text: Recombinant TbruGSK-3 short (accession number Tb10.161.3140) was produced at the University of Washington and shipped to Pfizer, Sandwich, UK for testing. Kinase-Glo reagent (Promega) was used as previously described. This luciferase coupled assay, which provides a luminescent quantification of ATP […] during the kinase reaction, was modified to a 384-well plate screening format. A selected library of 16,540 compounds comprising known HsGSK-3 beta inhibitors and close structural analogues was screened at 10 µM final assay concentration. Assay plates were prepared by dispensing 0.2 µL of compound (dissolved in 100% DMSO) from master plates into white 384-well plates (Greiner bio one). Primary screening was conducted in a 20 µL reaction volume. Enzyme was added to each well to a final concentration of 3.8 nM in a volume of 10 µl using a Multidrop Combi dispenser (Thermo Scientific) and the plates were incubated for 15 minutes at room temperature (RT). Glycogen synthase peptide 2 (BioGSP2; Sigma) and ATP, were dissolved in 20% acetonitrile and 1 M Tris-HCl pH 7.6 respectively, then diluted in assay buffer to a final concentration of 3.2 µM BioGSP2 and 2 µM ATP. The assay buffer consisted of 25 mM Tris-HCl pH 7.5, 10 mM MgCl2, 5 mM DTT, 0.1 mg/mL BSA, 2 U/mL Heparin and 10 µM EDTA. The reaction was initiated by adding 10 µL of the substrate mixture to each well and allowed to proceed at RT for 2 h. Twenty microlitres of Kinase-Glo reagent was added to quench the reaction. Luminescence was measured after 1 h at a 100 millisecond/well integration time using the Acquest Multimode plate reader (Molecular Devices). Each plate included a positive control (4 µM GW8510, Sigma) and negative control (1% DMSO). […] The data was analysed using Pfizer SIGHTS software and visualised using Spotfire software (TIBCO). Five separate 384-well plates were screened in duplicate to assess the assay reproducibility.

[6] = test system: panel of approximately 40 human kinases; assay: Single point human kinase panel screening; assay type: biochemical; settings: 10 µM
Method: as §1

[7] = test system: CaCo2 cell; assay: CaCo2 cell flux assay; assay type: in vitro ADME; settings: data not shown

T1 sequence (P49841 whole entry): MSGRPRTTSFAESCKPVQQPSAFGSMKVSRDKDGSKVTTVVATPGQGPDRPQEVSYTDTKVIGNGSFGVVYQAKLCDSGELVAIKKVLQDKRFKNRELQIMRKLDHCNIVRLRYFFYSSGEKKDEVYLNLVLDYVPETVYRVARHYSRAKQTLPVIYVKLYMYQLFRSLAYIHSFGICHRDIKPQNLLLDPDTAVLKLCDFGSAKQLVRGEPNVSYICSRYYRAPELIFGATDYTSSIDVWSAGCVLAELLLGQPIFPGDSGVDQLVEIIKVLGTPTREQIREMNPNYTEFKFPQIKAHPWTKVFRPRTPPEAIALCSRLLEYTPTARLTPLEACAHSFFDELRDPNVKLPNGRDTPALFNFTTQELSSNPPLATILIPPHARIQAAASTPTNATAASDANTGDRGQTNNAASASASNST

Compound | EC50 [3] [nM] | IC50 [4] [nM] | IC50 [5] [nM] | cell permeability in CaCo2 cell flux assay [7] | number of other kinases with >50% inhibition [6] | EC50 at 72 h [1] [nM] | selectivity window between T. brucei activity and activity on MRC5 cells [2] [fold] | human kinase panel specificity (in words) [6]
O=C1NCCc2[nH]c(-c3ccnc(Nc4ccc(-n5cccn5)cc4)c3)cc21 [PF-04903528] | 1130 | 236 | 32 | – | – | 1130 | – | –
CC(C)C(=O)Nc1cc([C@H]2C[C@@H](OC(=O)N(C)Cc3ccccc3)C2)[nH]n1 [CE-325692] | 640 | 2 | 65 | – | – | 4670 | – | –
CC(C)C(=O)Nc1cc([C@H]2C[C@@H](OC(=O)NCc3cccc(C(F)(F)F)c3F)C2)[nH]n1 [CE-325011] | 1050 | 5 | 94 | – | – | 2320 | – | –
CN(C)C[C@@H](NC(=O)c1ccc2[nH]nc(-c3nc4ccccc4[nH]3)c2c1)c1ccccc1 [PF-00744923] | 130 | < 1000 | 70 | – | – | 130 | – | –
Cc1cc(Nc2cc[nH]n2)nc(N(C)CCc2ccncc2)n1 [PF-01242377] | 130 | 132 | 61 | – | – | 1180 | – | –
CC(C)C(=O)Nc1cc([C@H]2C[C@@H](OC(=O)NCc3ccccc3Cl)C2)[nH]n1 [CE-324998] | 230 | 1 | 93 | – | – | 1220 | – | –
CS(=O)(=O)c1ccc(S(=O)(=O)Nc2ccc3c(Cl)c(C(=O)N4CCc5ccccc5C4)sc3c2)cc1 [AG-02449] | 130 | – | 69 | – | – | 620 | – | –
O=c1ccc2cnc(Nc3ccc(N4CCC(CCCO)CC4)cc3)nc2n1C1CCCC1 [compound 0181276] | – | 4290 | 600 | – | – | – | – | relatively specific against the wider human kinase panel
Cc1cc2nc(N3CCc4nc[nH]c(=O)c4C3)nc(Nc3cc(C4CC4)[nH]n3)c2s1 [PF-00956933] | 130 | < 1000 | 57 | – | – | 2170 | – | –
O=C(NCc1ccccc1)O[C@H]1C[C@@H](c2cc(NC(=O)C3CCCCC3)n[nH]2)C1 [PF-04279731] | 1230 | 1 | 62 | – | 2 | 1470 | – | –
O=c1ccc2cnc(Nc3ccccc3)nc2n1C1CC2CCC1C2 (centres unmarked) [compound 0180532] | – | 60 | 7270 | – | 4 | – | – | –

Further compounds by falling IC50 [5], results first:

EC50 [3] [nM] | IC50 [4] [nM] | IC50 [5] [nM] | cell permeability in CaCo2 cell flux assay [7] | number of other kinases with >50% inhibition [6] | Compound | EC50 at 72 h [1] [nM] | selectivity window between T. brucei activity and activity on MRC5 cells [2] [fold] | human kinase panel specificity (in words) [6]
> 25000 | 32 | 142 | no detectable cell permeability | – | CCc1nn(CCC(=O)Nc2cc([C@H]3C[C@@H](NC(C)=O)C3)[nH]n2)c2ccccc12 [CE-160042] | – | – | highly specific and only inhibited HsGSK-3 beta; also recorded: no significant inhibition of any other kinases
1140 | 3 | 99 | – | – | O=C(NC1CCN(C(=O)Cc2ccccc2)C1)c1ccc2[nH]nc(-c3nc4ccccc4[nH]3)c2c1 (centres unmarked) [CE-317112] | 39400 | 35 | –
2450 | 3 | 67 | – | – | CCC(C(=O)Nc1cc([C@H]2C[C@@H](OC(=O)NCc3ccccn3)C2)[nH]n1)c1ccccc1 (some centres unmarked) [PF-00305135] | 930 | – | –
130 | 173 | 62 | – | – | CNCc1cncc(-c2ccc3[nH]nc(-c4nc5ccccc5[nH]4)c3c2)c1C [AG-024290] | 130 | – | –
2690 | 46 | 21 | – | – | CCCC1=C(C#N)C(c2cccc3nonc23)c2cn[nH]c2N1 (centres unmarked) [CE-309608] | 16000 | – | –
130 | < 1000 | 19 | – | – | CNC(=O)[C@@H]1CCCN1c1nc(Cc2cccc(C#N)c2)cc(Nc2cc(C3CC3)[nH]n2)n1 [PF-02368935] | 130 | – | –
